Measured values taken from patent publication US20240407413A1, “Concentrates Compromising Stevia Blends and Uses” (The Coca-Cola Company, priority 2018, published 2024).

Columns and labels:
[1] = Solubility in mock syrup system (0.3%); format: physicochemical
[2] = Appearance of 0.3 wt % syrup concentrates diluted from super concentrates; format: physicochemical; details: 0.3 wt % (5.5+1 syrup concentration) in water, mixed at room temperature for 90 hours
Procedure: The final syrup concentrations are provided below:
The 2 wt % super concentrates were then diluted to a 5.5+1 syrup concentration (0.3 wt %) with water and mixed at room temperature for 90 hours.

Solubility in Syrup System (0.3%) ([1]; 500 ppm in citric buffer) | Solubility in Syrup System (0.3%) ([1]; 512 ppm in citric buffer) | Observations [2] | SMILES
No | No | – | C=C1C[C@@]23CCC4[C@](C)(C(=O)OC5OC(CO)C(O)C(OC6OC(CO)C(O)C(O)C6O)C5OC5OC(CO)C(O)C(O)C5O)CCC[C@@]4(C)[C@@H]2CCC1(OC1OC(CO)C(O)C(OC2OC(CO)C(O)C(O)C2O)C1OC1OC(CO)C(O)C(O)C1O)C3 (stereo partly drawn) [Reb-M, 13-[(2-O-β-D-glucopyranosyl-3-O-β-D-glucopyranosyl-β-D-glucopyranosyl)oxy] ent kaur-16-en-19-oic acid-[(2-O-β-D-glucopyranosyl-3-O-β-D-glucopyranosyl-β-D-glucopyranosyl) ester]]
– | – | cloudy | C=C1C[C@@]23CC[C@H]4[C@@](C)(CCC[C@@]4(C)C(=O)O[C@@H]4O[C@H](CO)[C@@H](O)[C@H](O[C@@H]5O[C@H](CO)[C@@H](O)[C@H](O)[C@H]5O)[C@H]4O[C@@H]4O[C@@H](C)[C@H](O)[C@@H](O)[C@H]4O)[C@@H]2CC[C@]1(O[C@@H]1O[C@H](CO)[C@@H](O)[C@H](O[C@@H]2O[C@H](CO)[C@@H](O)[C@H](O)[C@H]2O)[C@H]1O[C@@H]1O[C@H](CO)[C@@H](O)[C@H](O)[C@H]1O)C3 [Reb N]
